Tests used:
Format in all cases: cell-based
HeLa cells = assay: Mitochondrial live imaging in HeLa cells; conditions: vs control
Procedure: Mitochondrial accumulation then was investigated in other cell lines. C9 KD was performed in HeLa cells, followed by a fluorescent mitochondrial dye for live imaging. […] To study the mitochondrial dysfunction phenotype upon C9 KD in a non-cancer cell line, C9 was knocked down in rat-derived cortical neurons in combination with a mitochondrial stain.

U87 cells = assay: TUNEL assay for DNA breaks; conditions: vs control
Procedure: Cells were treated with control and C9 siRNA for three days. On day three, cells were collected for TUNEL assay using the FlowTACS kit (TREVIGEN™, 4817-60-K) according to manufacturer's instructions to detect DNA fragmentation. For a positive control, DNA damage was induced using doxorubicin. Data were collected on a FACSCalibur™ flow cytometer (Becton Dickinson™) and data analysis performed on FlowJo™.
ROS can cause oxidative DNA damage. Since elevated ROS levels were observed under C9 KD conditions, it may cause increase in DNA damage. To test this hypothesis, a TUNEL assay was used to measure DNA breaks. […] In addition to C9KD, U87 cells were treated with a known chemotherapeutic DNA damage-inducing drug to serve as a positive control for DNA damage (see FIG. 23). FIG. 23 presents data for the TUNEL assay of U87 cells treated as described for FIG. 21 and for positive DNA-damage control with 0.5 μM doxorubicin (DOX). FIG. 23A presents data for the percentage of cells with DNA fragmentation (shown by DNA damage) comparing control (siCtrl) C9 KD (siC9; SEQ ID NO:631) and DOX-treated cells as measured by FACS analysis. […] FIG. 24 is a set of graphs showing data for cells treated as described for FIG. 23, with the exception of using a different C9 siRNA, indicated as siC9 #2 (SEQ ID NO:633).

p53 = assay: Western blot of phospho-p53, p53 and p21; conditions: U87 cells
Procedure: (§1) For Western blot analysis, cells were lysed with lysis buffer (20 mM sodium phosphate (pH 7.0), 250 mM NaCl, 30 mM sodium pyrophosphate, 0.1% Nonidet™ P-40, 5 mM EDTA, 10 mM NaF, 0.1 mM Na3VO4, and 1 mM PMSF) supplemented with complete protease inhibitors (Roche™) and homogenized by passage through a 28 gauge needle. Protein concentration was measured with a Bio-Rad™ protein assay dye reagent and results were read using a spectrophotometer (BiophotometerPlus™ by Eppendorf™). Protein extracts were resolved by SDS PAGE on gradient (Thermo Fisher™) or 12% gels. Proteins were then electrotransferred at 350 mA for 80 minutes onto a PVDF membrane (Immobilon-P PVDF). Membranes were blocked with PBST with 5% milk and 1% BSA for 30 minutes. Quantitation of blots was performed Image Studio Lite software (LI-COR Biosciences™).
One of the responses to DNA damage is activation of p53 by ATM. Upon DNA damage, ATM activation leads to p53 phosphorylation, which activates p53 as a transcription factor. Since increased DNA damage was observed upon C9 KD, whether p53 is activated in C9 depleted cells was investigated. First, total p53 levels were measured in U87 cells treated with control and two independent siRNAs against C9. […] Then, the levels of phosphorylated (active) p53 (at s15) was measured. Phosphorylation of s15 on p53 was increased in both C9 siRNA samples.

p53 target genes = assay: qRT-PCR of p53 target genes; conditions: U87 cells
Procedure: (§2) For most RNA experiments, RNA was isolated from cells using the Qiagen™ RNeasy minikit. Complementary DNA was generated using the Qiagen™ Quantitect™ reverse transcription kit with 0.5 μg of input RNA as measured with a NanoDrop spectrophotometer (Thermo Scientific™). Real-time PCR was carried out on an ABI StepOne Plus™ machine using power SYBR Green dye (Thermo Scientific™). Transcript levels were assayed in triplicate and normalized to RPL32 and HPS90 mRNAs. Relative changes in cDNA levels were calculated using the comparative Ct method (ΔΔCT method). All RT-qPCR primers were designed with Primer3Plus™ or retrieved from Primerbank™. Primer sequences are listed here, including in Table 3. All primers were purchased from Life Technologies™. H. Generation of p53 Knock Out U87 Cell Lines by CRISPR
This also is consistent with p53 activation. FIG. 27 presents RT-qPCR analysis of C9ORF72, CDKN1A (p21), NOXA, PUMA, GLUT1, MDM2 and GLUT3 mRNA levels in U87 cells treated with control (siCtrl) and C9 (siC9; SEQ ID NO:631) siRNA. These studies were performed using three biological replicates (n=3); error bars represent S.E.M. Statistical significance was assessed by an unpaired t-test: NS P>0.05, *P≤0.05, **P≤0.01, ***P≤0.001 ****P≤0.0001.

p53 null U87 cells = assay: Western blot of PARP1, p-ERK, γ-H2AX in p53 null U87 cells
Procedure: as §1
In addition, C9 was knocked down with two independent siRNAs in p53 null U87 cells to investigate the role of p53 in the viability of the cells.
See FIG. 37, a WB of p53 null U87 cells (KO #4) treated with control and C9 siRNA and showing levels of PARP1, p-ERK, γ-H2AX. Actin was used as a loading control.

EGF mRNA = assay: qRT-PCR of EGF mRNA; conditions: U87 cells
Procedure: as §2
How C9 levels affect EGF signaling was investigated. […] Furthermore, after 48 and 72 hours, the reduction of EGF mRNA levels was about 97%. See FIG. 39, which presents data from qRT-PCR analysis, showing mRNA levels of C9ORF72 and EGF in U87 cells treated with control or C9 siRNA for 24, 48 and 72 hours (represented as fold change). Statistical significance was assessed by an unpaired t-test: NS P>0.05, *P≤0.05, **P≤0.01, ***P≤0.001 ****P 0.0001.

siC9: siRNA targeting C9 mRNA: UUAAUGAAACAAUAAUCACUC (SEQ ID NO:631; sense) and GUGAUUAUUGUUUCAUUAAUC (SEQ ID NO:632; antisense) (listed as RNA, chemistry not given here)
mitochondrial network organization (HeLa cells): mitochondrial network disorganization | DNA breaks (TUNEL) (U87 cells): increase in DNA breaks | p21 protein levels (p53): increased p21 protein levels | phosphorylation of s15 on p53 (p53): increased | total p53 levels (p53): elevates p53 levels | mRNA levels of p53 target genes (p21, MDM2, NOXA, PUMA) (p53 target genes): elevated | mRNA levels of repression targets (GLUT1 and GLUT3) (p53 target genes): lower mRNA levels | PARP1 protein (p53 null U87 cells; p53 KO U87 cells): PARP downregulation occurred without the presence of p53 | ERK and γ-H2AX phosphorylation (p53 null U87 cells; p53 null U87 cells (KO #4)): increased ERK and γ-H2AX phosphorylation | reduction of EGF mRNA levels (EGF mRNA; 24 hours after C9 KD): 50% | reduction of EGF mRNA levels (EGF mRNA; 48 hours): about 97% | reduction of EGF mRNA levels (EGF mRNA; 72 hours): about 97%

Reference: patent US20210108199A1, “Treatment for aggressive cancers by targeting C9ORF72” (The Trustees of Columbia University in the City of New York, priority 2017, published 2021)
